Patent publication US8841301B2, “Selective NR2B antagonists” (Bristol-Myers Squibb Company, priority 2011, dated 2014)
Counter-ions that a name gives are not always drawn. Like-named read-outs stand apart in the source and are kept apart here.

Target: hNR2B (Homo sapiens, UniProt Q05586+Q13224)
Assay: Electrophysiology NMDA receptor experiments: two electrode voltage-clamp in Xenopus laevis oocytes expressing GluN1/GluN2 subunits
Format: cell-based
Details: oocytes voltage clamped at −40 mV, 50 μM glutamate, 30 μM glycine
Description: Electrophysiology NMDA Receptor Experiments.
Stage V and VI oocytes were surgically removed from the ovaries of large, well-fed and healthy Xenopus laevis anesthetized with 3-amino-benzoic acid ethyl ester (3 gm/l). Clusters of isolated oocytes were incubated with 292 U/ml Worthington (Freehold, N.J.) type IV collagenase or 1.3 mg/ml collagenase (Life Technologies, Gaithersburg, Md.; 17018-029) for 2 hr in Ca^2+-free solution comprised of (in mM) 115 NaCl, 2.5 KCl, and 10 HEPES, pH 7.5, with slow agitation to remove the follicular cell layer. Oocytes were then washed in the same solution supplemented with 1.8 mM CaCl2 and maintained in Barth's solution comprised of (in mM): 88 NaCl, 1 KCl, 2.4 NaHCO3, 10 HEPES, 0.82 MgSO4, 0.33 Ca(NO3)2, and 0.91 CaCl2 and supplemented with 100 μg/ml gentamycin, 10 μg/ml streptomycin, and 10 μg/ml penicillin. Oocytes were manually defolliculated and injected within 24 hrs of isolation with 3-5 ng of human GluN1 subunit cRNA and 7-10 ng of human GluN2 cRNA subunit in a 50 nl volume, and incubated in Barth's solution at 18° C. for 2-7 d. Glass injection pipettes had tip sizes ranging from 10-20 microns, and were backfilled with mineral oil. cRNA was synthesized from linearized template cDNA for rat glutamate receptor subunits according to manufacturer specifications (Ambion).
Two electrode voltage-clamp recordings were made 2-7 days post-injection. Oocytes were placed in a dual-track plexiglass recording chamber with a single perfusion line that splits in a Y-configuration to perfuse two oocytes. Dual recordings were made at room temperature (23° C.) using two Warner OC725B two-electrode voltage clamp amplifiers, arranged as recommended by the manufacturer. Glass microelectrodes (1-10 Megaohms) were filled with 300 mM KCl (voltage electrode) or 3 M KCl (current electrode). The bath clamps communicated across silver chloride wires placed into each side of the recording chamber, both of which were assumed to be at a reference potential of 0 mV. Oocytes were perfused with a solution comprised of (in mM) 90 NaCl, 1 KCl, 10 HEPES, […] and 0.5 BaCl2; pH 7.4, adjusted by addition of NaOH. Oocytes were recorded under voltage clamp at −40 mV. Final concentrations for glutamate and glycine were 50 μM and 30 μM, respectively. Concentration-response curves for experimental compounds were obtained by applying in successive fashion maximal glutamate/glycine, followed by glutamate/glycine plus variable concentrations of experimental compounds. Dose response curves consisting of four to eight concentrations were obtained in this manner. The baseline leak current at −40 mV was measured before and after recording, and the full recording linearly corrected for any change in leak current. The level of inhibition by applied experimental compounds was expressed as a percent of the initial glutamate response, and averaged together across oocytes from multiple experiments. Results were pooled, and the average percent responses at antagonist concentrations were fit by the equation, Percent Response=(100−minimum)/(1+([conc]/IC50)^nH)+minimum where minimum is the residual percent response in saturating concentration of the experimental compounds, IC50 is the concentration of antagonist that causes half of the achievable inhibition, and nH is a slope factor describing steepness of the inhibition curve. […]
For NMDA receptor subtype selectivity experiments human GluN1/GluN2A, GluN1/GluN2C, and GluN1/GluN2D cRNAs were expressed in Xenopus laevis as described above. Here, 10 μM concentrations of the antagonist was perfused with 50 μM glutamate and 30 μM glycine onto the oocyte for two min and the remaining current in the presence of the antagonist was compared to the maximal current obtained with 50 μM glutamate and 30 μM glycine alone (defined as 100%). When IC50 determinations were made against other NMDA receptor subtypes the protocol as described above was followed. […]

hNR2B, sequence (Q13224 27-1484, other chains not shown): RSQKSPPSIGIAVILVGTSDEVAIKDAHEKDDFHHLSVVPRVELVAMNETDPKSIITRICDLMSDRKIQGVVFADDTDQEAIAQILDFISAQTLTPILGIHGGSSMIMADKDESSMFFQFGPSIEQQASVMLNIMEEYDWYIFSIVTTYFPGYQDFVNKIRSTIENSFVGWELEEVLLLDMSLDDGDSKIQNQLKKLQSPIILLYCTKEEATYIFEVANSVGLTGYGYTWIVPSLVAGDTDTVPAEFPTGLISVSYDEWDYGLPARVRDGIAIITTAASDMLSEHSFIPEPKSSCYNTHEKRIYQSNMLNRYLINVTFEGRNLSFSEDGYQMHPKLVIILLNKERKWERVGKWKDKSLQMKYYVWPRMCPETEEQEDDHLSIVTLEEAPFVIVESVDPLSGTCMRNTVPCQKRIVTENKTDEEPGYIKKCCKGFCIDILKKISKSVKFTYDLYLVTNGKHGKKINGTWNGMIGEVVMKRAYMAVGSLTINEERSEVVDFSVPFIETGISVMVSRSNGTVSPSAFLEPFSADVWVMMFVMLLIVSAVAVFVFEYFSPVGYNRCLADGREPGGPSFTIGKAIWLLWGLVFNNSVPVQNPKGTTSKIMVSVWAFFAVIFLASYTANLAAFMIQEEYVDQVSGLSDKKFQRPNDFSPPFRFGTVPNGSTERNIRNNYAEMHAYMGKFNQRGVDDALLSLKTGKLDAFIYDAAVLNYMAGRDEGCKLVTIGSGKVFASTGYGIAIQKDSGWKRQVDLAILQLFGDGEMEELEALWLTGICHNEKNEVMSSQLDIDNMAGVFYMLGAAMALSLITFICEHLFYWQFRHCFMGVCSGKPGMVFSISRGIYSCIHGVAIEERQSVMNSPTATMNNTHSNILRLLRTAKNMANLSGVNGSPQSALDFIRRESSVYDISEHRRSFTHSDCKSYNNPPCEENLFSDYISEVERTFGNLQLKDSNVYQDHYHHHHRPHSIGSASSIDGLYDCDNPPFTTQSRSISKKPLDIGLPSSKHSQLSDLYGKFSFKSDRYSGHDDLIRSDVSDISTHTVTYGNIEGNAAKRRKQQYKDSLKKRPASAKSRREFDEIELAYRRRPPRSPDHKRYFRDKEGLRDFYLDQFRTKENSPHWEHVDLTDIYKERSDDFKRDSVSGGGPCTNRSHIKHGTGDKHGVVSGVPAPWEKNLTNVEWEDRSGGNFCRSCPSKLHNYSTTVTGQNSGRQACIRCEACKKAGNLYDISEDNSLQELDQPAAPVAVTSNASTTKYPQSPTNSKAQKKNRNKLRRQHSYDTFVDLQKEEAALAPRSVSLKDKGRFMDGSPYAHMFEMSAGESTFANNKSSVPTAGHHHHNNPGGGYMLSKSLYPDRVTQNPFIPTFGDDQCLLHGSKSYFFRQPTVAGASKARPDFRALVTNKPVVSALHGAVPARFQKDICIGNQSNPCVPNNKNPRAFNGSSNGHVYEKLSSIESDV

IC50 (read-out: Rating (hNR2B IC50)) [nM]	IC50 (read-out: hNR2B IC50) [nM]	SMILES
< 200		O=c1ccc2cc(OCc3cnc(Nc4ccc(OC(F)F)nc4)nc3)ccc2[nH]1 [Example 50]
< 200		O=c1[nH]c2ccc(OCc3cnc(Nc4ccc(OC(F)(F)F)cc4)nc3)cc2o1 [Example 80]
< 200		Cc1cc(Nc2ncc(COc3ccc4[nH]ncc4c3Cl)cn2)ccc1OC(F)F [Example 73]
	> 3000	FC(F)(F)Oc1ccc(Nc2ncc(COc3ccc4[nH]nc(C(F)(F)F)c4c3)cn2)cc1 [Example 15, N-(4-(trifluoromethoxy)phenyl)-5-(((3-(trifluoromethyl)-1H-indazol-5-yl)oxy)methyl)pyrimidin-2-amine]
< 200		Cc1cc(Nc2ncc(COc3ccc4[nH]c(=O)ccc4c3)cn2)ccc1OC(F)F [Example 38]
1000 to 10000		FC1(F)Oc2ccc(Nc3ncc(CCc4ccc5[nH]ncc5c4)cn3)cc2O1 [Example 133]
< 200		O=c1ccc2cc(CCc3cnc(Nc4ccc(OC(F)F)c(F)c4)nc3)ccc2[nH]1 [Example 129]
< 200		FC(F)Oc1ccc(Nc2ncc(COc3ccc(Nc4nccs4)cc3)cn2)cc1Cl [Example 92]
< 200		O=C1Nc2ccc(CCc3cnc(Nc4ccc(OC(F)F)cc4)nc3)cc2CO1 [Example 139]
< 200		CCc1ccc(Nc2ncc(CCc3ccc4[nH]c(=O)ccc4c3)cn2)cc1F [Example 126]
< 200		FC(F)Oc1ccc(Nc2ncc(COc3ccc4[nH]nnc4c3)cn2)cc1 [Example 69]
< 200		CS(=O)(=O)c1ccc(Nc2ncc(COc3ccc4[nH]c(=O)ccc4c3)cn2)cc1 [Example 40]
< 200		Oc1ccc(OCc2cnc(Nc3ccc(OC(F)F)cc3)nc2)nn1 [Example 59]
< 200		FC(F)Oc1ccc(Nc2ncc(COc3cnc4[nH]ncc4c3)cn2)cc1 [Example 79]
< 200		O=C1Nc2ccc(OCc3cnc(Nc4ccc(OC(F)F)c(Cl)c4)nc3)cc2CO1 [Example 77]
< 200		FC(F)Oc1ccc(Nc2ncc(CCc3cnc4[nH]ncc4c3)cn2)cc1 [Example 154]
< 200		O=c1ccc2cc(C3CC3c3cnc(Nc4ccc(OC(F)F)cc4)nc3)ccc2[nH]1 (stereo not drawn) [Example 110]
	35	Oc1ccc(CCc2cnc(Nc3ccc(OC(F)F)cc3)nc2)cc1 [Example 107, 4-(2-(2-((4-(difluoromethoxy)phenyl)amino)pyrimidin-5-yl)ethyl)phenol]
201 to 1000		CC1(C)OC(=O)Nc2ccc(CCc3cnc(Nc4ccc(OC(F)F)c(Cl)c4)nc3)cc21 [Example 140]
< 200		O=C1Nc2ccc(OCc3cnc(Nc4ccc(OC(F)F)cc4)nc3)cc2CO1 [Example 58]
< 200		O=C1Nc2ccc(OCc3cnc(Nc4ccc(OC(F)F)c(F)c4)nc3)cc2CO1 [Example 84]
1000 to 10000		O=c1ccc2cc(OCc3cc(NCc4ccc(Cl)c(Cl)c4)ncn3)ccc2[nH]1 [Example 97]
< 200	13	Oc1ccc(OCc2ccc(Nc3ccc(OC(F)F)cc3)nc2)cc1 [Example 10]
< 200		Cc1ccc(Nc2ncc(COc3ccc4c(c3)COC(=O)N4)cn2)cc1F [Example 83]
< 200	87	O=c1ccc2cc(OCc3ccc(NCc4ccc(Cl)cc4)nc3)ccc2[nH]1 [Example 1, 6-((6-(4-chlorobenzylamino)pyridin-3-yl)methoxy)quinolin-2(1H)-one]
< 200	101	Cc1ccc(Nc2ncc(COc3ccc4[nH]c(=O)ccc4c3)cn2)cc1F [Example 28]
1000 to 10000		CCc1ccc(Nc2ncc(CCc3ccc4[nH]c(=O)ccc4c3)cn2)cc1Cl [Example 135]
< 200		COc1ccc(Nc2ncc(COc3ccc4[nH]c(=O)ccc4c3)cn2)cc1Cl [Example 36]

IC50 (read-out: Rating (hNR2B IC50)) [nM]	IC50 (read-out: hNR2B IC50) [nM]	SMILES
1000 to 10000		Cc1ccc(Nc2ncc(CCc3ccc4c(c3)C(C)(C)OC(=O)N4)cn2)cc1F [Example 142]
1000 to 10000	> 3000	O=c1ccc2cc(OCc3ccc(NCc4ccc(Cl)c(Cl)c4)nc3)ccc2[nH]1 [Example 2, 6-((6-(3,4-dichlorobenzylamino)pyridin-3-yl)methoxy)quinolin-2(1H)-one]
< 200		Oc1ncc(OCc2cnc(Nc3ccc(OC(F)F)cc3)nc2)cn1 [Example 70]
1000 to 10000		O=c1ccc2cc(OCc3ccnc(NCc4ccc(Cl)cc4)n3)ccc2[nH]1 [Example 94]
< 200		O=C1Nc2ccc(OCc3cnc(Nc4ccc(OC(F)(F)F)cc4)nc3)cc2CO1 [Example 61]
< 200		COc1ccc(Nc2ncc(COc3ccc4[nH]c(=O)ccc4c3)cn2)cc1F [Example 29]
< 200		O=c1ccc2cc(OCc3cc(Nc4ccc(Cl)cc4)ncn3)ccc2[nH]1 [Example 96]
1000 to 10000		CCc1ccc(Nc2ncc(CCc3ccc4c(c3)C(C)(C)OC(=O)N4)cn2)cc1F [Example 141]
	64	O=c1ccc2cc(OCc3cnc(Nc4ccc(Cl)cc4)nc3)ccc2[nH]1 [Example 14, 6-((2-(4-chlorophenylamino)pyrimidin-5-yl)methoxy)quinolin-2(1H)-one]
< 200		COc1ccc(Nc2ncc(COc3ccc4[nH]c(=O)ccc4c3)cn2)cn1 [Example 48]
	1250	O=c1ccc2cc(OCc3ccnc(Nc4ccc(Cl)cc4)n3)ccc2[nH]1 [Example 93, 6-((2-(4-chlorophenylamino)pyrimidin-4-yl)methoxy)quinolin-2(1H)-one]
	14	O=c1[nH]c2ccc(OCc3cnc(Nc4ccc(OC(F)F)cc4)nc3)cc2o1 [Example 16, 6-((2-((4-(difluoromethoxy)phenyl)amino)pyrimidin-5-yl)methoxy)benzo[d]oxazol-2(3H)-one]
	36	O=c1ccc2cc(OCc3cc(Nc4ccc(Cl)c(Cl)c4)ncn3)ccc2[nH]1 [Example 95, 6-((6-(3,4-dichlorophenylamino)pyrimidin-4-yl)methoxy)quinolin-2(1H)-one trifluoroacetate]
< 200		Cc1ccc(Nc2ncc(COc3ccc4[nH]c(=O)ccc4c3)cn2)cc1Cl [Example 42]
< 200		FC(F)Oc1ccc(Nc2ncc(COc3ccc4[nH]ncc4c3)cn2)cc1Cl [Example 75]
1000 to 10000		CCc1ccc(Nc2ncc(CCc3ccc4[nH]ncc4c3)cn2)cc1Cl [Example 134]
> 10000		FC(F)Oc1ccc(Nc2ncc(CCCNc3ncnc4[nH]ncc34)cn2)cc1 [Example 115]
< 200		Fc1cc(Nc2ncc(CCc3ccc4[nH]ncc4c3)cn2)ccc1OC(F)F [Example 128]
< 200		COc1ccc(Nc2ncc(CCc3ccc4[nH]c(=O)ccc4c3)cn2)cc1C [Example 132]
1000 to 10000		Cc1cc(Nc2ncc(CCc3ccc4c(c3)C(C)(C)OC(=O)N4)cn2)ccc1OC(F)F [Example 147]
< 200		Fc1cc(Nc2ncc(CCc3cnc4[nH]ncc4c3)cn2)ccc1OC(F)F [Example 152]
< 200		CC(C)c1ccc(Nc2ncc(COc3ccc4[nH]c(=O)ccc4c3)cn2)cc1 [Example 44]
< 200	97	Cc1ccc(Nc2ncc(COc3ccc4[nH]c(=O)ccc4c3)cn2)cc1 [Example 25]
< 200		O=c1ccc2cc(OCc3cnc(Nc4ccc(OC(F)F)c(Cl)c4)nc3)c(F)cc2[nH]1 [Example 88]
201 to 1000		CCc1ccc(Nc2ncc(CCc3cnc4[nH]ncc4c3)cn2)cc1F [Example 151]
< 200		O=c1ccc2cc(OCc3cnc(Nc4ccc(Cl)cc4)nc3C(F)(F)F)ccc2[nH]1 [Example 54]
< 200		CN(C)c1nc(Nc2ccc(OC(F)F)cc2)ncc1COc1ccc2[nH]c(=O)ccc2c1 [Example 55]
